Data on one molecule can be found in US20100003223A1, “METHOD FOR THE PRODUCTION OF MULTICOMPONENT STEM CELLS, RELATIVE KITS AND USES IN THE MEDICAL FIELD” (Metapontium Agrobios S.R.L., priority 2006, published 2010).

Structures are written as SMILES.

One data set concerns adipocytes. Nature of the data set: Determination of cell apoptosis (TACS Klenow In Situ Apoptotic Detection kit). In kind it is cell-based, human.
Data set [1] concerns late-phase adipogenic markers (leptin, GLUT-4). Nature of the data set: Semiquantitative PCR / RT-PCR of adipogenic marker expression. In kind it is cell-based, human. Conditions: preliminary results; FIG. 1: Ob gene (leptin), 175 μM. The method, then: In order to amplify the cDNA obtained from the 5-Aza cultures treated, the following were used: • Eppendorf thermocycler Amplifier; • Specific primers designed with the help of the PrimerQuest program (http://biotools.idt.com) and Nucleotide database consultation (http://www.ncbi.nlm.nih.gov) and BLAST (Basic Local Alignment Search Tool) (http://www.ncbi.nlm.nih.gov/BLAST/).
The primers were purchased from New England Biolabs.
Amplification conditions: 95° C. for 10 minutes (initial denaturation), 30 cycles of 95° C. for 30 seconds (denaturation), 52° C. for 45 seconds (annealing), 72° C. for 45 seconds (extension), 72° C. for 10 minutes (final extension). The reaction mixture was prepared with 1 μl of cDNA, 1 μl of dNtPs Mix (10 mM), 1.25 μl of MgCl2 solution (25 mM), 1.25 μl of buffer 10×, 0.2 μl of Ampli Taq Gold (5U μl) (Applied Biosystem), 1 μl of specific sense primer and 1 μl of antisense primer (10 μM), […] of H2O RNase free in a final volume of 12.5 μl.
The expression of the late-phase adipogenic markers (leptin, GLUT-4), precocious-phase markers (PPAR-γ, CEBP-α) and markers typical of the undifferentiated embryonic state (OCT4, SOX2, NANOG, SSEA-1, alkaline phosphatase) was evaluated by means of PCR and RT-PCR.

The next data set relates to adipose cells. Nature of the data set: Cell growth determination by BrdU incorporation. Format: cell-based, human. Conditions: adipose cells treated.
A further data set relates to embryoid bodies. The note with it: 1 μM, 6 hours; cited from earlier work.
A further data set relates to mature adipose cells. The data set can be described thus: Morphological analysis of treated cultures by optical (phase contrast) microscopy.

Experimental for mature adipose cells: Human pre-adipocytes and embryonic cell lines 3T3-L1 were sown at a density of 5×10^3 cells/cm^2 and cultivated in Petri plates in a proliferative medium (DMEM-F12, 10% Fetal Calf Serum (FCS), 1% antibiotic-fungizone (AF)) until the maximum cell confluence is reached. The differentiative induction is obtained by 48 hour treatment in specific medium consisting of DMEM, 10% Fetal Bovine Serum (FBS), 1 AF and specific differentiating factors (insulin, isobutylmethylxanthine, dexamethasone, indomethacin). The mature differentiated form (univacuolar phenotype) is reached after culture of 7-10 days in maintenance medium, free of adipogenic inductive agents. Immunofluorescence studies verify the expression of leptin, a hormone typically expressed by adipocytes in adult phase.
The mature adipose cells were maintained in a culture with DMEM, 10% FBS, 1 AF for two weeks, under continuous stimulation of 5′ Azacytidine at molar concentrations of 0.1 μM, 1 μM, 10 M, 100 μM, 125 μM, 150 μM, 175 μM, 250 μM.

Consider `Nc1ncn([C@@H]2O[C@H](CO)[C@@H](O)[C@H]2O)c(=O)n1` [5-Azacytidine, 5′ Aza 2′ cytidine], for which the apoptotic phenomena in the data set with adipocytes (125 μM, 25 hours after treatment) is reported as 15%; in the data set on adipocytes (125 μM, 48 hours after treatment), 15%; in the data set with adipocytes (125 μM, 72 hours after treatment), 10%; in the data set with adipocytes (150 μM, 25 hours after treatment) it was 22%; with adipocytes (150 μM, 48 hours after treatment) it was 28%; in the data set on adipocytes (150 μM, 72 hours after treatment), 10%. Besides, the apoptotic phenomena in the data set on adipocytes (175 μM, 25 hours after treatment) is 38%; with adipocytes (175 μM, 48 hours after treatment) it was 41%; in the data set with adipocytes (175 μM, 72 hours after treatment) it was 10%. In addition, in data set [1], the “expression of the differentiative late-phase adipogenic markers” value is recorded as “a reduction in the expression”. Besides, the “cell proliferation by incorporated BrdU” value in the data set on adipose cells is given as “Cell proliferation is observed”. The “colony growth process and sensitivity to LIF” value in the data set on embryoid bodies was “re-established the colony growth process typical of stem cells and the sensitivity to LEUKEMIA INHIBITORY FACTOR (LIF)”. Moreover, in the data set on mature adipose cells (250 μM), the “apoptosis of treated cultures (FIG. 7)” value is “a high apoptotic degree is observed”. Moreover, in the data set on mature adipose cells (doses ≦0.1 μM), the “cell damage and/or cell proliferation (FIG. 8)” value is on record as “no signs of cell damage and/or cell proliferation”. For the same molecule, the “morphology of the plate” value in the data set on mature adipose cells (mainly at 1-10 μM and higher than 100 μM, 10 days of treatment, preliminary results) is “a change in the morphology of the plate”.
